Molecules are shown by their SMILES.

The assay has as its target T1, H. sapiens SLC2A9 variant 2 (GLUT9B) (Homo sapiens, UniProt Q9NRM0).
T1 sequence (Q9NRM0 1-511 isoform Q9NRM0-2): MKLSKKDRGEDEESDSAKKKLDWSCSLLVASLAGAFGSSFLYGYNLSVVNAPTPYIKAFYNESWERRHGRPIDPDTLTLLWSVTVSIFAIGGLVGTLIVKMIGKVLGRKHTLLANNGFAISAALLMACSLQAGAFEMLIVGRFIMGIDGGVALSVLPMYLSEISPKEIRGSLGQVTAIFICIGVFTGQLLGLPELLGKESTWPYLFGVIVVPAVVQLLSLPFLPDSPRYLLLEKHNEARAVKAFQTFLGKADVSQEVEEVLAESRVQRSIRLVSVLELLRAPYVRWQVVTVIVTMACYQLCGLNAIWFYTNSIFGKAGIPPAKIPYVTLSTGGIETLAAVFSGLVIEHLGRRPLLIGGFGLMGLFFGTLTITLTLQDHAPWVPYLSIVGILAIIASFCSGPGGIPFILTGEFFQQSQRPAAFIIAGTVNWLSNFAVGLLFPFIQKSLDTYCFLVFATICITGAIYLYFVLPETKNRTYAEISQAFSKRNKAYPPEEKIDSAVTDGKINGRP
Kind of assay: GLUT9 functional assay: uric acid uptake in HEK293T cells, allantoin formation by MS/MS as proxy of GLUT9B inhibition. The assay is classed as cell-based. The conditions noted are these: 60 minute assay; HEK293T cells stably expressing GLUT9B and transiently A. oryzae uricase; uric acid 0.3 mM, 37° C.; read-out: 60 min IC50. The method in brief:
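Inhibition of GLUT9B-mediated urate uptake read as reduced allantoin formation, measured by MS/MS against allantoin standards in HEK293T matrix with log-logistic fitting. Stable GLUT9B HEK293T cells carrying transfected A. oryzae uricase were incubated 15 or 60 min at 37° C with uric acid at Km (0.3 mM), pH 7.4 gluconate buffer.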
As for `COCCCc1cnc(-c2ccc3oc(COC)cc3c2)c(N2CCC(C(=O)O)CC2)n1` [Compound 179, 1-(3-(2-(methoxymethyl)benzofuran-5-yl)-6-(3-methoxypropyl)pyrazin-2-yl)piperidine-4-carboxylic acid], the IC50 (commonly the concentration that gives 50% inhibition) was 500 to 2000 nM.
Consider `COCCCc1cnc(-c2ccc3occc3c2)c(N2CCC3(C(=O)O)CC2C3)n1` [Compound 181, 2-(3-(benzofuran-5-yl)-6-(3-methoxypropyl)pyrazin-2-yl)-2-azabicyclo[3.1.1]heptane-5-carboxylic acid], for which the half-maximal inhibitory concentration (IC50) was less than 500 nM.
As to `COCCCc1cnc(-c2ccc3occc3c2)c(NC23CC(C(=O)O)(C2)C3)n1` [Compound 182, 3-((3-(benzofuran-5-yl)-6-(3-methoxypropyl)pyrazin-2-yl)amino)bicyclo[1.1.1]pentane-1-carboxylic acid], the half-inhibitory concentration (IC50) was greater than 2000 nM.
In the case of `COCCCc1cnc(-c2cc(F)c3occc3c2)c(N2CCC(C)(C(=O)O)CC2)n1` [Compound 184, 1-(3-(7-fluorobenzofuran-5-yl)-6-(3-methoxypropyl)pyrazin-2-yl)-4-methylpiperidine-4-carboxylic acid] it was less than 500 nM; in that of `COCCCc1cnc(-c2cc(F)c3occc3c2)c(N2CCC(O)(C(=O)O)CC2)n1` [Compound 185, 1-(3-(7-fluorobenzofuran-5-yl)-6-(3-methoxypropyl)pyrazin-2-yl)-4-hydroxypiperidine-4-carboxylic acid], 500 to 2000 nM.
`COCCCc1cnc(-c2cc(F)c3occc3c2)c(N2CCC(C(=O)O)C3CC32)n1` (centres unmarked) [Compound 186, 2-(3-(7-fluorobenzofuran-5-yl)-6-(3-methoxypropyl)pyrazin-2-yl)-2-azabicyclo[4.1.0]heptane-5-carboxylic acid]: the IC50 was less than 500 nM.
In the case of `COCCCc1cnc(-c2cc(F)c3occc3c2)c(N2CCC(C(=O)O)C(F)(F)C2)n1` (centres unmarked) [Compound 187, 3,3-difluoro-1-(3-(7-fluorobenzofuran-5-yl)-6-(3-methoxypropyl)pyrazin-2-yl)piperidine-4-carboxylic acid] it was less than 500 nM; in that of `O=C(O)C1CCN(c2nc(CCCC(F)F)cnc2-c2cc(F)c3occc3c2)CC1` [Compound 188, 1-(6-(4,4-difluorobutyl)-3-(7-fluorobenzofuran-5-yl)pyrazin-2-yl)piperidine-4-carboxylic acid], less than 500 nM; in that of `COCCCc1cnc(-c2ccc3c(c2)OCO3)c(N2CCC(C(=O)O)CC2)n1` [Compound 189, 1-(3-(benzo[d][1,3]dioxol-5-yl)-6-(3-Methoxypropyl)Pyrazin-2-yl)piperidine-4-carboxylic acid], less than 500 nM.
Take `COCCCc1cnc(-c2cc(F)c3c(c2)OCO3)c(N2CCC(C(=O)O)CC2)n1` [Compound 190, 1-(3-(7-Fluorobenzo[d][1,3]dioxol-5-yl)-6-(3-Methoxypropyl)Pyrazin-2-yl)piperidine-4-carboxylic acid]: the IC50 is less than 500 nM.
For `COCCCc1cnc(-c2ccc3c(c2)OCO3)c(N2CCC(C(=O)O)CC2)c1` [Compound 191, 1-(2-(benzo[d][1,3]dioxol-5-yl)-5-(3-Methoxypropyl)Pyridin-3-yl)piperidine-4-carboxylic acid], the IC50 was less than 500 nM.
As for `COCCCc1cnc(-c2cc(F)c3c(c2)CCO3)c(N2CCC(C)(C(=O)O)CC2)n1` [Compound 192, 1-(3-(7-fluoro-2,3-dihydrobenzofuran-5-yl)-6-(3-methoxypropyl)pyrazin-2-yl)-4-methylpiperidine-4-carboxylic acid], the IC50 was less than 500 nM.
In the case of `COCCCc1cnc(-c2ccc3c[nH]nc3c2)c(N2CCC(C(=O)O)CC2)n1` [Compound 193, 1-(3-(2H-indazol-6-yl)-6-(3-methoxypropyl)pyrazin-2-yl)piperidine-4-carboxylic acid] it was greater than 2000 nM; in that of `COCCCc1cnc(-c2ccnc3[nH]ccc23)c(N2CCC(C(=O)O)CC2)n1` [Compound 194, 1-(6-(3-methoxypropyl)-3-(1H-pyrrolo[2,3-b]pyridin-4-yl)pyrazin-2-yl)piperidine-4-carboxylic acid], greater than 2000 nM.
On to `COCCCc1cnc(-c2ccc3ncnn3c2)c(N2CCC(C(=O)O)CC2)n1` [Compound 195, 1-(3-([1,2,4]triazolo[1,5-a]pyridin-6-yl)-6-(3-methoxypropyl)pyrazin-2-yl)piperidine-4-carboxylic acid], for which the IC50 is greater than 2000 nM.
In the case of `COCCCc1cnc(-c2cnc3nccn3c2)c(N2CCC(C(=O)O)CC2)n1` [Compound 196, 1-(3-(imidazo[1,2-a]pyrimidin-6-yl)-6-(3-methoxypropyl)pyrazin-2-yl)piperidine-4-carboxylic acid] it was greater than 2000 nM; in that of `COCCCc1cnc(-c2ccc3c(C)[nH]nc3c2)c(N2CCC(C(=O)O)CC2)n1` [Compound 197, 1-(6-(3-methoxypropyl)-3-(3-methyl-2H-indazol-6-yl)pyrazin-2-yl)piperidine-4-carboxylic acid], greater than 2000 nM; in that of `COCCCc1cnc(-c2ccc3nn(C)cc3c2)c(N2CCC(C(=O)O)CC2)n1` [Compound 198, 1-(6-(3-methoxypropyl)-3-(2-methyl-2H-indazol-5-yl)pyrazin-2-yl)piperidine-4-carboxylic acid], greater than 2000 nM.
With `COCCCc1cnc(-c2cnc3ccccc3c2)c(N2CCC(C(=O)O)CC2)n1` [Compound 199, 1-(6-(3-methoxypropyl)-3-(quinolin-3-yl)pyrazin-2-yl)piperidine-4-carboxylic acid], the IC50 was greater than 2000 nM.
Next, `COCCCc1cnc(-c2ccnc3ccccc23)c(N2CCC(C(=O)O)CC2)n1` [Compound 200, 1-(6-(3-methoxypropyl)-3-(quinolin-4-yl)pyrazin-2-yl)piperidine-4-carboxylic acid]: greater than 2000 nM; `COCCCc1cnc(-c2cc(C(F)(F)F)nn2C)c(N2CCC(C(=O)O)CC2)n1` [Compound 201, 1-(6-(3-methoxypropyl)-3-(1-methyl-3-(trifluoromethyl)-1H-pyrazol-5-yl)pyrazin-2-yl)piperidine-4-carboxylic acid]: greater than 2000 nM; `COCCCc1cnc(-c2ccnn2CCC(C)C)c(N2CCC(C(=O)O)CC2)n1` [Compound 202, 1-(3-(1-isopentyl-1H-pyrazol-5-yl)-6-(3-methoxypropyl)pyrazin-2-yl)piperidine-4-carboxylic acid]: greater than 2000 nM.
Regarding `COCCCc1cnc(-c2cc3sccc3s2)c(N2CCC(C(=O)O)CC2)n1` [Compound 203, 1-(6-(3-methoxypropyl)-3-(thieno[3,2-b]thiophen-2-yl)pyrazin-2-yl)piperidine-4-carboxylic acid], the IC50 is greater than 2000 nM.
Take `COCCCc1cnc(-c2ccc3nsnc3c2)c(N2CCC(C(=O)O)CC2)n1` [Compound 204, 1-(3-(benzo[c][1,2,5]thiadiazol-5-yl)-6-(3-methoxypropyl)pyrazin-2-yl)piperidine-4-carboxylic acid]: the concentration for half-maximal inhibition (IC50) was greater than 2000 nM.
On to `COCCCc1cnc(-c2ccc3nccn3c2)c(N2CCC(C(=O)O)CC2)n1` [Compound 205, 1-(3-(imidazo[1,2-a]pyridin-6-yl)-6-(3-methoxypropyl)pyrazin-2-yl)piperidine-4-carboxylic acid], for which the IC50 is greater than 2000 nM.
Take `COCCCc1cnc(-c2cnn3c2CCCC3)c(N2CCC(C(=O)O)CC2)n1` [Compound 206, 1-(6-(3-methoxypropyl)-3-(4,5,6,7-tetrahydropyrazolo[1,5-a]pyridin-3-yl)pyrazin-2-yl)piperidine-4-carboxylic acid]: the half-maximal inhibitory concentration (IC50) is greater than 2000 nM.
As for `COCCCc1cnc(-c2ccc3cncn3c2)c(N2CCC(C(=O)O)CC2)n1` [Compound 207, 1-(3-(imidazo[1,5-a]pyridin-6-yl)-6-(3-methoxypropyl)pyrazin-2-yl)piperidine-4-carboxylic acid], the 50% inhibitory concentration (IC50) is greater than 2000 nM.
For `COCCCc1cnc(-c2ccn3ccnc3c2)c(N2CCC(C(=O)O)CC2)n1` [Compound 208, 1-(3-(imidazo[1,2-a]pyridin-7-yl)-6-(3-methoxypropyl)pyrazin-2-yl)piperidine-4-carboxylic acid], the IC50 is greater than 2000 nM.
On to `COCCCc1cnc(-c2cnn3c2OCCC3)c(N2CCC(C(=O)O)CC2)n1` [Compound 209, 1-(3-(6,7-dihydro-5H-pyrazolo[5,1-b][1,3]oxazin-3-yl)-6-(3-methoxypropyl)pyrazin-2-yl)piperidine-4-carboxylic acid], for which the IC50 was greater than 2000 nM.
Next, `COCCCc1cnc(-c2cnc3sccc3c2)c(N2CCC(C(=O)O)CC2)n1` [Compound 210, 1-(6-(3-methoxypropyl)-3-(thieno[2,3-b]pyridin-5-yl)pyrazin-2-yl)piperidine-4-carboxylic acid]: 500 to 2000 nM; `COCCCc1cnc(-c2ccc3nccn3n2)c(N2CCC(C(=O)O)CC2)n1` [Compound 211, 1-(3-(imidazo[1,2-b]pyridazin-6-yl)-6-(3-methoxypropyl)pyrazin-2-yl)piperidine-4-carboxylic acid]: greater than 2000 nM; `COCCCc1cnc(-c2ccn3ncnc3c2)c(N2CCC(C(=O)O)CC2)n1` [Compound 212, 1-(3-([1,2,4]triazolo[1,5-a]pyridin-7-yl)-6-(3-methoxypropyl)pyrazin-2-yl)piperidine-4-carboxylic acid]: greater than 2000 nM.

Source of the values: patent US20250179032A1, “HETEROCYCLIC INHIBITORS OF GLUT9 FOR TREATMENT OF DISEASE” (HORIZON THERAPEUTICS IRELAND DAC, priority 2022, published 2025).
